PubChem BioAssay AID743357 (Broad Institute, 2014)
The source made the active and inactive calls. The rule behind the calls is not given here.

Target: BioA, adenosylmethionine-8-amino-7-oxononanoate aminotransferase (Mycobacterium tuberculosis)
Test: BioA aminotransferase inhibition, biochemical, coupled fluorescence displacement, 20-point, dry powder, dose response (AID 743357)
Details: coupled fluorescence displacement assay
[1] = measured here: test 1 replicate AC50
[2] = measured here: test 2 replicate AC50

| SMILES | AC50 [nM] | activity change, negative = inhibition (at 10 µM (top of the series)) | further results |
| --- | --- | --- | --- |
| CC(=O)c1ccc(N2CCCN(C(=O)c3ccc4c(c3)OCO4)CC2)cc1 | 289 |  | AC50 [1]: 289 nM |
| O=C(c1ccc2c(c1)OCO2)N1CCN(c2ccc(S(=O)(=O)C(F)(F)F)cc2)CC1 |  | inactive |  |
| COc1ccccc1NC(=O)N1CC[C@@H]2[C@@H](CO)N(C)c3ccc(-c4ccc(F)cc4)cc3[C@@H]21 |  | inactive |  |
| COc1cc(C(=O)N2CCN(c3ccc(C(C)=O)cc3)CC2)cc2c1OCO2 | 181 |  | AC50 [1]: 181 nM |
| CC(=O)c1ccc(N2CCN(C(=O)c3cc4c(cc3Cl)OCO4)CC2)cc1 | 6570 |  | AC50 [1]: 6570 nM |
| CC(=O)c1ccc(N2CCN(C(=O)c3ccc4c(c3)OC(C)(C)O4)CC2)cc1 |  | inactive |  |
| CC(=O)c1ccc(N2CCN(C(=O)c3ccccc3Cl)CC2)cc1 | 8240 |  | AC50 [2]: 8240 nM |
| CC(=O)c1ccc(N2CCN(C(=O)c3ccc4c(c3)OCO4)CC2)cc1 | 49.7 |  | AC50 [1]: 30.1 nM; AC50 [2]: 69.2 nM |
| COc1cccc(NC(=O)N2CC[C@@H]3[C@@H](CO)N(C)c4ccc(-c5cccc(F)c5)cc4[C@@H]32)c1 |  | inactive |  |
| CC(=O)c1ccc(N2CCN(C(=O)c3cccc4c3OCO4)CC2)cc1 | 1580 |  | AC50 [1]: 1580 nM |
| CC(=O)c1ccc(N2CCN(S(=O)(=O)c3ccc4c(c3)OCO4)CC2)cc1 |  | inactive |  |
| CCCNC(=O)N1CC[C@@H]2[C@@H](CO)N(C)c3ccc(-c4ccc(F)cc4)cc3[C@@H]21 |  | inactive | AC50 [2]: > 20000 nM |
| CC(=O)c1ccc(N2CCN(C(=O)c3ccc(Cl)c(Cl)c3)CC2)cc1 | 217 |  | AC50 [1]: 217 nM |
| CC(=O)c1ccc(N2CCN(C(=O)c3ccc4c(c3)OC(F)(F)O4)CC2)cc1 |  | inactive |  |
| CN1c2ccc(-c3ccc(F)cc3)cc2[C@H]2[C@H](CCN2C(=O)Cc2ccccn2)[C@H]1CO |  | inactive |  |
| CNS(=O)(=O)c1ccc(N2CCN(C(=O)c3ccc4c(c3)OCO4)CC2)cc1 |  | inactive |  |
| CN1c2ccc(-c3cccc(F)c3)cc2[C@H]2[C@H](CCN2C(=O)c2ccc3c(c2)OCO3)[C@@H]1CO |  | inactive |  |
| CC(=O)c1ccc(N2CCN(C(=O)c3ccc4snnc4c3)CC2)cc1 | 1850 |  | AC50 [1]: 1850 nM |
| COc1ccc(NC(=O)N2CC[C@@H]3[C@@H](CO)N(C)c4ccc(-c5cccc(F)c5)cc4[C@@H]32)cc1 |  | inactive |  |
| CN1c2ccc(-c3cccc(F)c3)cc2[C@@H]2[C@@H](CCN2C(=O)c2ccc3c(c2)OCO3)[C@@H]1CO |  |  | activity change, negative = inhibition (at 5.6 µM (top of the series)): inactive |
| CC(=O)c1ccc(N2CCN(C(=O)c3ccc4c(c3)OCO4)[C@H](C)C2)cc1 | 55.3 |  | AC50 [2]: 55.3 nM |
| CC(=O)c1ccc(N2CCN(C(=O)c3cc4c(cc3C)OCO4)CC2)cc1 | 1090 |  | AC50 [1]: 1090 nM |
| CN1c2ccc(-c3ccc(F)cc3)cc2[C@H]2[C@H](CCN2C(=O)Nc2cc(F)ccc2F)[C@H]1CO |  | inactive |  |
| CN1c2ccc(-c3ccc(F)cc3)cc2[C@H]2[C@H](CCN2C(=O)Nc2ccc(F)cc2)[C@H]1CO |  | inactive |  |
| CN1c2ccc(-c3cccc(F)c3)cc2[C@H]2[C@H](CCN2C(=O)Nc2ccccc2F)[C@H]1CO |  | inactive |  |

| SMILES | AC50 [nM] | activity change, negative = inhibition (at 10 µM (top of the series)) | further results |
| --- | --- | --- | --- |
| CN1c2ccc(-c3cccc(F)c3)cc2[C@@H]2[C@@H](CCN2C(=O)c2ccc3c(c2)OCO3)[C@H]1CO |  | inactive |  |
| O=C(c1ccc2c(c1)OCO2)N1CCN(c2ccc(OC(F)(F)F)cc2)CC1 |  | inactive |  |
| CC(C)NC(=O)N1CC[C@@H]2[C@@H](CO)N(C)c3ccc(-c4ccc(F)cc4)cc3[C@@H]21 |  | inactive | AC50 [2]: > 20000 nM |
| COCC(=O)N1CC[C@@H]2[C@@H](CO)N(C)c3ccc(-c4cccc(F)c4)cc3[C@@H]21 | 55.4 |  | AC50 [2]: 55.4 nM |
| CC(=O)c1ccc(N2CCN(C(=O)c3cc4c(cn3)OCO4)CC2)cc1 |  | inactive | AC50 [1]: > 20000 nM |
| CN1c2ccc(-c3ccc(F)cc3)cc2[C@H]2[C@H](CCN2C(=O)Cc2cccnc2)[C@H]1CO |  |  | activity change, negative = inhibition (at 9 µM (top of the series)): inactive |
| CC(=O)c1ccc(NCCNC(=O)c2ccc3c(c2)OCO3)cc1 |  | inactive |  |
| CN1c2ccc(-c3cccc(F)c3)cc2[C@H]2[C@H](CCN2C(=O)Cc2cccnc2)[C@H]1CO |  | inactive | AC50 [2]: > 20000 nM |
| CC(=O)c1ccc(N2CCN(C(=O)c3ccc4c(c3C)OCO4)CC2)cc1 | 53.7 |  | AC50 [1]: 53.7 nM |
| COc1ccc(NC(=O)N2CC[C@@H]3[C@@H](CO)N(C)c4ccc(-c5ccc(F)cc5)cc4[C@@H]32)cc1 |  | inactive |  |
| CNC(=O)c1ccc(N2CCN(C(=O)c3ccc4c(c3)OCO4)CC2)cc1 |  | inactive | AC50 [2]: > 20000 nM |
| CC(=O)c1ccc(N2CCN(C(=O)Nc3ccc4c(c3)OCO4)CC2)cc1 |  | inactive | AC50 [1]: > 20000 nM |
| O=C(c1ccc2c(c1)OCO2)N1CCN(c2ccc(C(F)(F)F)cc2)CC1 |  | inactive | AC50 [1]: > 20000 nM |
| CC(=O)c1ccc(N2CCN(C(=O)c3ccc4ocnc4c3)CC2)cc1 | 198 |  | AC50 [1]: 198 nM |
| CC(=O)c1ccc(N2CC3(CN(C(=O)c4ccc5c(c4)OCO5)C3)C2)cc1 |  | inactive |  |
| CC(=O)c1ccc(N2CC3CC2CN3C(=O)c2ccc3c(c2)OCO3)cc1 (stereo not given) |  | inactive | AC50 [1]: > 20000 nM |
| COc1ccccc1C(=O)N1CCN(c2ccc(C(C)=O)cc2)CC1 |  | inactive | AC50 [2]: > 20000 nM |
| COc1ccccc1NC(=O)N1CC[C@@H]2[C@@H](CO)N(C)c3ccc(-c4cccc(F)c4)cc3[C@@H]21 |  | inactive |  |
| COC(=O)CCCCCCC(=O)N1CC[C@@H]2[C@@H](CO)N(C)c3ccc(-c4cccc(F)c4)cc3[C@@H]21 |  | inactive | AC50 [2]: > 20000 nM |
| CN(C)S(=O)(=O)c1ccc(N2CCN(C(=O)c3ccc4c(c3)OCO4)CC2)cc1 |  | inactive |  |
| CCC(=O)N1CC[C@@H]2[C@@H](CO)N(C)c3ccc(-c4ccc(F)cc4)cc3[C@@H]21 | 2820 |  | AC50 [2]: 2820 nM |
| CCCCCCCC(=O)N1CC[C@@H]2[C@@H](CO)N(C)c3ccc(-c4cccc(F)c4)cc3[C@@H]21 |  | inactive |  |
| CC(=O)c1ccc(N2CCN(C(=O)c3ccccc3F)CC2)cc1 | 6400 |  | AC50 [2]: 6400 nM |
| CN1c2ccc(-c3cccc(F)c3)cc2[C@H]2[C@H](CCN2C(=O)Cc2ccccc2)[C@H]1CO |  | inactive |  |
